The text below walks through data of patent US20250059156A1, “THERAPEUTIC ALKALOID COMPOUNDS” (Sensorium Therapeutics, Inc., priority 2022, published 2025).

One assay concerns the target SERT (Homo sapiens (Human), UniProt P31645). As to the kind of experiment: SERT inhibition assay (Neurotransmitter Transporter Fluorescence assay). The note with it: class symbols; legend in nM/micromolar. It counts as cell-based. As to the method: SERT inhibition was measured using a Neruotransmitter Transportation Fluorescence assay. Briefly, stable 5HHH cells were prepared in a 384 microwell plate. Compounds were prepared by in assay buffer (20 mM HEPES, 0.1% BSA). The compounds were added to the plated cells and incubated for 30 minutes at 37° C. 25 μL of dye solution (Molecular Devices Neurotransmitter Transporter Uptake Assay Kit) was added per well and incubated for 30 minutes at 37° C. The plates were then read on a plate reader.

For the next assay, the target named is PDE4D2 (Homo sapiens (Human), UniProt Q08499). As to the kind of experiment: PDE4 percent inhibition assay. It counts as biochemical. The note with it: for inhibition at 10 µM: read-out: PDE4 Isoform % Inhibition @ 10 μM PDE4D2. As to the method:
(§1) PDE4 assay kit (BPS Bioscience, San Diego, CA), as described below.
(§2) • 1) Dilute 20 μM FAM-Cyclic-3′, 5′-AMP stock 100-fold with PDE buffer to make a 200 nM solution. Make only sufficient quantity needed for the assay; store remaining 20 μM stock solution in aliquots at −20° C. • 2) Add 25 μl of FAM-Cyclic-3′,5′-AMP (200 nM) to each well designated “Positive Control”, “Test Inhibitor”, and “Substrate Control”. • 3) Add 20 μl of PDE assay buffer to each well designated “Substrate Control” and 45 μl of PDE assay buffer to each well designated “Blank”. • 4) Add 5 μl of inhibitor solution to each well designated “Test Inhibitor”. For the wells labeled “Positive Control”, “Substrate Control” and “Blank”, add 5 μl of the same solution without inhibitor (inhibitor buffer). • 5) Thaw PDE on ice. Upon first thaw, briefly spin tube containing enzyme to recover the full contents of the tube. • 6) Dilute PDE4 in PDE buffer to 7.5 pg/μl (0.15 ng/reaction)*. Initiate reaction by adding 20 μl of PDE4 (7.5 pg/μl) to the wells designated “Positive Control” and “Test Inhibitor.” • 7) Incubate at room temperature for 1 hour.
(§3) • 1) Mix binding agent thoroughly and dilute binding agent 1:100 with binding agent diluent. • 2) Add 100 μl diluted binding agent to each microwell. Incubate at room temperature for 1 hour with slow shaking. • 3) Read the fluorescent polarization of the sample in a microtiter-plate reader equipped for the measurement of fluorescence polarization, capable of excitation at wavelengths ranging from 485±5 nm and detection of emitted light ranging from 528±10 nm. Blank value is subtracted from all other values.
(§4) 100 µM dilutions of the test compounds were prepared in assay buffer (10% DMSO concentration) and 5 μl of the dilution was added to a 50 μl reaction so that the final concentration of DMSO is 1% in all of reactions.
(§5) The enzymatic reactions were conducted at room temperature for 60 minutes in a 50 μl mixture containing PDE assay buffer, 100 nM FAM-cAMP, a PDE enzyme and the test compound.
(§6) After the enzymatic reaction, 100 Is of a binding solution (1:100 dilution of the binding agent with the binding agent diluent) was added to each reaction and the reaction was performed at room temperature for 60 minutes.
(§7) Fluorescence intensity was measured at an excitation of 485 nm and an emission of 528 nm using a Tecan Infinite M1000 microplate reader.

For another assay, the target named is PDE4A1A (Homo sapiens (Human), UniProt P27815). As to the kind of experiment: PDE4 percent inhibition assay. The note with it: for inhibition at 10 µM: read-out: PDE4 Isoform % Inhibition @ 10 μM PDE4A1A. The assay is classed as biochemical. As to the method: as §1, §2, §3, §4, §5, §6, §7
A further assay deals with PDE4C1 (Homo sapiens (Human), UniProt Q08493). The assay is described as follows: PDE4 percent inhibition assay. The assay is classed as biochemical. The note with it: for inhibition at 10 µM: read-out: PDE4 Isoform % Inhibition @ 10 μM PDE4C1. As to the method:
as §1, §2, §3, §4, §5, §6, §7

Another assay concerns the target PDE4B2 (Homo sapiens (Human), UniProt Q07343). As to the kind of experiment: PDE4 percent inhibition assay. As to conditions: for inhibition at 10 µM: read-out: PDE4 Isoform % Inhibition @ 10 μM PDE4B2. It counts as biochemical. As to the method:
as §1, §2, §3, §4, §5, §6, §7

SERT, sequence (P31645 whole entry, species assumed): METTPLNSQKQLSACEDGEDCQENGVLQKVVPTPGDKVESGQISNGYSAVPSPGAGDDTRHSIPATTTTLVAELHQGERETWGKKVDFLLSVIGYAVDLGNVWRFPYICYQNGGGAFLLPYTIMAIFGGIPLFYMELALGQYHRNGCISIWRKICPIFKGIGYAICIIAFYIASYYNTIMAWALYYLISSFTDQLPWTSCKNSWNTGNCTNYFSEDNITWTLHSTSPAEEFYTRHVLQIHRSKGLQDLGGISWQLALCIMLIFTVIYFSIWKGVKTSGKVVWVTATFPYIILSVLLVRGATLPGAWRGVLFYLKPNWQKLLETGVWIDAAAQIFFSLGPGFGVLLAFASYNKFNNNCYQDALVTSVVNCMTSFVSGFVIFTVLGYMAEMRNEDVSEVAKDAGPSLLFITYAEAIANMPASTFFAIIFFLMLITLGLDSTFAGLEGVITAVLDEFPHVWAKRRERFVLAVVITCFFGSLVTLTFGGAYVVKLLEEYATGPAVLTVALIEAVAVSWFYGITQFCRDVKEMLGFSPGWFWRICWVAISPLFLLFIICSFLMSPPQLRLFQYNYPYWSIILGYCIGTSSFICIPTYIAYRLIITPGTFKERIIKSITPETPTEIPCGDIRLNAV
PDE4A1A, sequence (P27815 other isoform, or with tags, fused parts or gaps): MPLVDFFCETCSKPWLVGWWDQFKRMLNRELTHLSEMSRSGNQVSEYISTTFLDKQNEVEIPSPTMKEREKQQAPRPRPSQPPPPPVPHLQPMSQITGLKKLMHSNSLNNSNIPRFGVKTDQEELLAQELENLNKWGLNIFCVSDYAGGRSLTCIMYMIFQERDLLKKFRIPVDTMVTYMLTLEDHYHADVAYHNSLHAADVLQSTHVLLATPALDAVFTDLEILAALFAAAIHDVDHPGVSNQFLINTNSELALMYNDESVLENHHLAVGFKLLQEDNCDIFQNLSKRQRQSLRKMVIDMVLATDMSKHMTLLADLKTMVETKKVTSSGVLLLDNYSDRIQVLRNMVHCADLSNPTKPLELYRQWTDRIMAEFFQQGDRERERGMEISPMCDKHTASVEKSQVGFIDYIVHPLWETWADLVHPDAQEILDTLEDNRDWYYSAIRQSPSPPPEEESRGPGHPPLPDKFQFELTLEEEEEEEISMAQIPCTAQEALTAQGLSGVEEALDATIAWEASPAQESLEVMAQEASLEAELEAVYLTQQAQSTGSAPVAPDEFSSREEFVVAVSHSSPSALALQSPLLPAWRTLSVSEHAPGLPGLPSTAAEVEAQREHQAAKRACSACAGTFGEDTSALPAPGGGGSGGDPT
PDE4B2, sequence (Q07343 other isoform, or with tags, fused parts or gaps): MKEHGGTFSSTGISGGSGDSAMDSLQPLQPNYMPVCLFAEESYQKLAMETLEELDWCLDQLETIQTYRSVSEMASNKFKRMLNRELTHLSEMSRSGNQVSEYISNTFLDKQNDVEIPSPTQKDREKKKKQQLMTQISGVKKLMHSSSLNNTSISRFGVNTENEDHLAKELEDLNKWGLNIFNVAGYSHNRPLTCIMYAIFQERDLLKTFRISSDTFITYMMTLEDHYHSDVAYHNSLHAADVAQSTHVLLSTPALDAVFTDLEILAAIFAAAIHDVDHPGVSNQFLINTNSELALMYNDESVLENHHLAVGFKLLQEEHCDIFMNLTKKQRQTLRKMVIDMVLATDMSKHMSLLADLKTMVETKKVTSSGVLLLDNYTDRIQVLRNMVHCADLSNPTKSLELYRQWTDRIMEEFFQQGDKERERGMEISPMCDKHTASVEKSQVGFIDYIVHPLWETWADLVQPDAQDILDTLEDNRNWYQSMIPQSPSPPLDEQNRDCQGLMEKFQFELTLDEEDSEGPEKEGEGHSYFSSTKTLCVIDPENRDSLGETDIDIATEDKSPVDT
PDE4C1, sequence (Q08493 whole entry, canonical isoform): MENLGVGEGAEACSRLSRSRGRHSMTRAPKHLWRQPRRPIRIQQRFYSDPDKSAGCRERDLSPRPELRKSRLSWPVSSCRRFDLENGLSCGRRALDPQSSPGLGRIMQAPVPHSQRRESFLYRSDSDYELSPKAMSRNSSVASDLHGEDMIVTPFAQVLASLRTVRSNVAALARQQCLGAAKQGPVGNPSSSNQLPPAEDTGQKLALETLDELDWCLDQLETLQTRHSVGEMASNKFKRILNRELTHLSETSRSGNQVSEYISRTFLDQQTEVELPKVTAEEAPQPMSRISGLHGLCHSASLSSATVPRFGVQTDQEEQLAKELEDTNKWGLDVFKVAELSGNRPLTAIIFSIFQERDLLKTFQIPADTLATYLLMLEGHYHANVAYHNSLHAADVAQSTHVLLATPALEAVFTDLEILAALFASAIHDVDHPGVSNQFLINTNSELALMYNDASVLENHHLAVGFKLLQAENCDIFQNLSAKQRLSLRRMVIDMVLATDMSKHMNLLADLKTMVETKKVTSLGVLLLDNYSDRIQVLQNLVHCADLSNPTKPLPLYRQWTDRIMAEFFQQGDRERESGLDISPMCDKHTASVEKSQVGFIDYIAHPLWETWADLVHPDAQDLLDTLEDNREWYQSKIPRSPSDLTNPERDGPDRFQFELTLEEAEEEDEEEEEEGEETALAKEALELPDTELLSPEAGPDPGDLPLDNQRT
PDE4D2, sequence (Q08499 303-809, change not shown): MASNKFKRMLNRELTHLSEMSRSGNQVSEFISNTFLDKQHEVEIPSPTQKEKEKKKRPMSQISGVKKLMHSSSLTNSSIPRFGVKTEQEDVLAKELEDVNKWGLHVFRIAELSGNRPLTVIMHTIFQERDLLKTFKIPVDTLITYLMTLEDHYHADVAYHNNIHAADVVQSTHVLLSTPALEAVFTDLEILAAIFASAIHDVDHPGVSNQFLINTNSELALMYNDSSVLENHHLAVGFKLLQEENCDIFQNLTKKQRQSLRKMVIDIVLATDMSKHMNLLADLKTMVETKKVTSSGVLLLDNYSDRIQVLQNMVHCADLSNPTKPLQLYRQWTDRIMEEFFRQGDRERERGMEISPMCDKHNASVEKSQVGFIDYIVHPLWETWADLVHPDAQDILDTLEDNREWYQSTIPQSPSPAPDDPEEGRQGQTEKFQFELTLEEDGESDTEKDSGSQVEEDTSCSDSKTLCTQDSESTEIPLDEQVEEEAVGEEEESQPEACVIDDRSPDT

Compound `COc1ccc([C@@]23CC[C@H](N4CCCCC4)C[C@@H]2N(C)CC3)cc1OC` [Compound 107, (3aS,6S,7aS)-3a-(3,4-dimethoxyphenyl)-1-methyl-6-(piperidin-1-yl)octahydro-1H-indole] yielded an IC50 at SERT of more than 1000 nM. The inhibition at 10 µM at PDE4D2, on PDE4A1A, on PDE4C1 and on PDE4B2 was less than 30% each time.

At SERT, `COc1ccc([C@]23CCN(C)[C@H]2[C@@H]2CC[C@H]3CC2=O)cc1OC` [Compound 204] gave an IC50 of 100 to 500 nM. Further, the “PDE4 Isoform % Inhibition @ 10 μM PDE4D2” value at PDE4D2 is listed as “A (A if the % inhibition is greater than or equal to 70%)”. The “PDE4 Isoform % Inhibition @ 10 μM PDE4A1A” value on PDE4A1A is “A (A if the % inhibition is greater than or equal to 70%)”. For the same compound, the “PDE4 Isoform % Inhibition @ 10 μM PDE4C1” value on PDE4C1 is on record as “A (A if the % inhibition is greater than or equal to 70%)”. For the same compound, the “PDE4 Isoform % Inhibition @ 10 μM PDE4B2” value on PDE4B2 was “A (A if the % inhibition is greater than or equal to 70%)”.

Consider `COc1ccc([C@@]23CC[C@H](N4CCCC4)C[C@@H]2N(C)CC3)cc1OC` [Compound 106, (3aS,6S,7aS)-3a-(3,4-dimethoxyphenyl)-1-methyl-6-(pyrrolidin-1-yl)octahydro-1H-indole], for which, on SERT, the IC50 fell in the range of 500 to 1000 nM. In addition, the inhibition at 10 µM on PDE4D2, at PDE4A1A, at PDE4C1 and at PDE4B2 was less than 30% each time.

`CCN1CC[C@@]2(c3ccc(OC)c(OC)c3)CCC(=O)C[C@@H]12` [Compound 224] had an IC50 on SERT of less than 50 nM.

`COc1ccc([C@@]23CC[C@@H](n4ccc(C(F)(F)F)n4)C[C@@H]2N(C)CC3)cc1OC` [Compound 115, (3aS,6R,7aS)-3a-(3,4-dimethoxyphenyl)-1-methyl-6-(3-(trifluoromethyl)-1H-pyrazol-1-yl)octahydro-1H-indole] gave an IC50 on SERT of less than 50 nM. The inhibition at 10 µM on PDE4D2, at PDE4A1A, at PDE4C1 and at PDE4B2 was less than 30% in each case.

`COc1ccc([C@@]23CCN(C)[C@H]2CC(=O)[C@@H]2O[C@@H]23)cc1OC` (racemic) [Compound 208, rac-(1aR,3aS,6aS,6bR)-6a-(3,4-dimethoxyphenyl)-4-methyloctahydro-2H-oxireno[2,3-e]indol-2-one]: the IC50 at SERT fell in the range of 50 to 100 nM. In addition, the inhibition at 10 µM at PDE4D2, at PDE4A1A, on PDE4C1 and on PDE4B2 was not below 70% each time.

On to `COc1ccc([C@]23CCN(C)[C@H]2CC(=O)[C@H]2O[C@H]23)cc1OC` [Compound 209], for which, on SERT, the IC50 was less than 50 nM. Besides, at PDE4D2, the “PDE4 Isoform % Inhibition @ 10 μM PDE4D2” value was “A (A if the % inhibition is greater than or equal to 70%)”. For the same compound, the “PDE4 Isoform % Inhibition @ 10 μM PDE4A1A” value on PDE4A1A was “A (A if the % inhibition is greater than or equal to 70%)”. Also, the “PDE4 Isoform % Inhibition @ 10 μM PDE4C1” value on PDE4C1 was “A (A if the % inhibition is greater than or equal to 70%)”. The “PDE4 Isoform % Inhibition @ 10 μM PDE4B2” value at PDE4B2 is “A (A if the % inhibition is greater than or equal to 70%)”.

`COc1ccc([C@]23CCN(C)[C@H]2[C@H]2CC[C@@H]3CC2=O)cc1OC` [Compound 203] gave an IC50 on SERT of 50 to 100 nM. Also, the “PDE4 Isoform % Inhibition @ 10 μM PDE4D2” value on PDE4D2 is on record as “B (B if the percent inhibition is 50-70%)”. On PDE4A1A, the “PDE4 Isoform % Inhibition @ 10 μM PDE4A1A” value is “D (D if the percent inhibition is less than 30%)”. Also, on PDE4C1, the “PDE4 Isoform % Inhibition @ 10 μM PDE4C1” value was “C (C is the percent inhibition is 30-50%)”. Besides, the “PDE4 Isoform % Inhibition @ 10 μM PDE4B2” value at PDE4B2 is reported as “B (B if the percent inhibition is 50-70%)”.

`COc1ccc([C@@]23CC[C@@H](N4CCC4)C[C@@H]2N(C)CC3)cc1OC` [Compound 116, (3aS,6R,7aS)-6-(azetidin-1-yl)-3a-(3,4-dimethoxyphenyl)-1-methyloctahydro-1H-indole] gave an IC50 against SERT of 500 to 1000 nM. The inhibition at 10 µM on PDE4D2, on PDE4A1A, at PDE4C1 and at PDE4B2 was less than 30% in each case.

With `COc1ccc([C@@]23CC[C@H](N4CCCC4=O)C[C@@H]2N(C)CC3)cc1OC` [Compound 111, 1-((3aS,6S,7aS)-3a-(3,4-dimethoxyphenyl)-1-methyloctahydro-1H-indol-6-yl)pyrrolidin-2-one], the IC50 against SERT is less than 50 nM. In addition, the inhibition at 10 µM at PDE4D2, on PDE4A1A, on PDE4C1 and at PDE4B2 was less than 30% in each case.

For `COc1ccc([C@@]23CC[C@@H](N4CCCC4)C[C@@H]2N(C)CC3)cc1OC` [Compound 105, (3aS,6R,7aS)-3a-(3,4-dimethoxyphenyl)-1-methyl-6-(pyrrolidin-1-yl)octahydro-1H-indole], the IC50 at SERT was 100 to 500 nM. Besides, the inhibition at 10 µM on PDE4D2, at PDE4A1A, on PDE4C1 and on PDE4B2 was less than 30% each time.

On to `COc1ccc([C@]23CCN(C)[C@H]2CC(=O)C=C3c2ccccc2)cc1OC` (racemic) [Compound 201, rac-(3aS,7aS)-3a-(3,4-dimethoxyphenyl)-1-methyl-4-phenyl-1,2,3,3a,7,7a-hexahydro-6H-indol-6-one], for which the IC50 against SERT is more than 1000 nM. Also, the inhibition at 10 µM on PDE4D2 is not below 70%; on PDE4A1A, not below 70%; on PDE4C1, 30 to 50%; on PDE4B2, not below 70%.

Turning to `COc1ccc([C@@]23CC[C@H](N4CCC4)C[C@@H]2N(C)CC3)cc1OC` [Compound 104, (3aS,6S,7aS)-6-(azetidin-1-yl)-3a-(3,4-dimethoxyphenyl)-1-methyloctahydro-1H-indole], the IC50 at SERT was 100 to 500 nM. In addition, the inhibition at 10 µM on PDE4D2, on PDE4A1A, at PDE4C1 and at PDE4B2 was less than 30% throughout.

`COc1ccc([C@]23CCC(=O)C[C@H]2N(C(C)C)CC3)cc1OC` [Compound 227]: at SERT, the IC50 lay in the range of 500 to 1000 nM.

Turning to `COc1ccc([C@@]23CC[C@H](n4ccc(C(F)(F)F)n4)C[C@@H]2N(C)CC3)cc1OC` [Compound 101, (3aS,6S,7aS)-3a-(3,4-dimethoxyphenyl)-1-methyl-6-(3-(trifluoromethyl)-1H-pyrazol-1-yl)octahydro-1H-indole], the inhibition at 10 µM on PDE4D2, on PDE4A1A, at PDE4C1 and on PDE4B2 was less than 30% throughout.

`COc1ccc([C@@]23CCN(C)[C@@H]2[C@H]2C[C@@H]3CC2=O)cc1OC` [Compound 214] gave an IC50 against SERT of 100 to 500 nM. In addition, the “PDE4 Isoform % Inhibition @ 10 μM PDE4D2” value at PDE4D2 is “C (C is the percent inhibition is 30-50%)”. The “PDE4 Isoform % Inhibition @ 10 μM PDE4A1A” value on PDE4A1A was “A (A if the % inhibition is greater than or equal to 70%)”. Also, at PDE4C1, the “PDE4 Isoform % Inhibition @ 10 μM PDE4C1” value is on record as “D (D if the percent inhibition is less than 30%)”. At PDE4B2, the “PDE4 Isoform % Inhibition @ 10 μM PDE4B2” value is on record as “C (C is the percent inhibition is 30-50%)”.

As to `COc1ccc([C@@]23CCN(C)[C@@H]2CC(=O)[C@@H]2O[C@@H]23)cc1OC` [Compound 210], the IC50 against SERT lay in the range of 100 to 500 nM. The “PDE4 Isoform % Inhibition @ 10 μM PDE4D2” value at PDE4D2 is reported as “A (A if the % inhibition is greater than or equal to 70%)”. The “PDE4 Isoform % Inhibition @ 10 μM PDE4A1A” value at PDE4A1A was “A (A if the % inhibition is greater than or equal to 70%)”. Besides, the “PDE4 Isoform % Inhibition @ 10 μM PDE4C1” value at PDE4C1 is recorded as “A (A if the % inhibition is greater than or equal to 70%)”. Also, the “PDE4 Isoform % Inhibition @ 10 μM PDE4B2” value on PDE4B2 is “A (A if the % inhibition is greater than or equal to 70%)”.

`CCN1CC[C@]2(c3ccc(OC)c(OC)c3)CCC(=O)C[C@H]12` [Compound 223] yielded an IC50 against SERT of more than 1000 nM.

On SERT, `COc1ccc([C@@]23CCC(=O)C[C@@H]2N(C(C)C)CC3)cc1OC` [Compound 226] came in with an IC50 of 500 to 1000 nM.

As usually defined, the IC50 is the concentration needed to halve the response being measured. Low readings indicate inhibition by little substance, high ones a need for much substance. As a reminder, the inhibition is the drop in the measured response relative to a control, in per cent.
